{
  "source": "paper PMC6043687",
  "about": "“Structural Analysis of Phosphoserine Aminotransferase (Isoform 1) From Arabidopsis thaliana– the Enzyme Involved in the Phosphorylated Pathway of Serine Biosynthesis” (Frontiers in Plant Science, 2018)",
  "key": {"AtPSAT1 [1]": {"target": "T1, AtPSAT1 (Arabidopsis thaliana, UniProt Q96255)", "T1 construct": "gene PSAT1; residues 72-430 (71-residue chloroplast transit peptide removed), 359 residues plus N-terminal SNA left after TEV cleavage of His6-tag; E. coli BL21 Gold, pMCSG68; homodimer (~80 kDa by SEC)", "T1 sequence (Q96255 72-430)": "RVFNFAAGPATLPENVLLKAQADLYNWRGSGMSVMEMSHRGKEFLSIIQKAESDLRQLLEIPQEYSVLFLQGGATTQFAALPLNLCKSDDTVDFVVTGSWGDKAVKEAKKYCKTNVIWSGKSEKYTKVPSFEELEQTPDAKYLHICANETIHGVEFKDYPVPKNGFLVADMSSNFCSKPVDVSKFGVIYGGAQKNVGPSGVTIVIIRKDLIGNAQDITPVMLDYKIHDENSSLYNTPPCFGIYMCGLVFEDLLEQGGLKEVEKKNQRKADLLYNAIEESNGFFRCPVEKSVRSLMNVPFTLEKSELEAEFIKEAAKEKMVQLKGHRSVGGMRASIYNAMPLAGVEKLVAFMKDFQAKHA", "assay": "X-ray crystallography: conversion of bound PLP to PMP", "assay_type": "biochemical", "conditions": "10 mM Glu added before crystallization; pH 8.5; Glu itself not present in the structure"}, "AtPSAT1 [2]": {"target": "T1, AtPSAT1", "assay": "X-ray crystallography, […] Å", "assay_type": "binding", "conditions": "covalent; internal aldimine (Schiff base) with K265; 1 mM PLP added; pH 8.5, 0.2 M lithium sulfate"}, "AtPSAT1 [3]": {"target": "T1, AtPSAT1", "assay": "X-ray crystallography, […] Å", "assay_type": "binding", "conditions": "PMP formed from PLP by addition of 10 mM Glu; not covalently bound to K265; pH 8.5, 0.2 M lithium sulfate"}, "AtPSAT1 [4]": {"target": "T1, AtPSAT1", "assay": "X-ray crystallography, […] Å", "assay_type": "binding", "conditions": "covalent; PLP-PSer geminal diamine intermediate also bound to K265; cocrystallized with 50 mM PSer, pH 8.5, no lithium sulfate"}, "[5]": {"target": "the molecule itself", "assay": "SEC; HiLoad Superdex 200 16/60; 25 mM HEPES pH 7.4, 100 mM KCl, 50 mM NaCl, 1 mM TCEP; protein mass calculated from the retention volume (~80 kDa)"}},
  "data": [
    {"molecule": "N[C@@H](CCC(=O)O)C(=O)O", "note": "[Glu]", "values": [
      {"measurement": "first half-transamination observed in crystal", "setting": "AtPSAT1 [1]", "result": "electron density maps (Figures 6A,B) revealed the cofactor with the amino group already transferred from Glu"}
    ]},
    {"molecule": "Cc1ncc(COP(=O)(O)O)c(C=O)c1O", "note": "[PLP]", "values": [
      {"measurement": "crystal structure", "setting": "AtPSAT1 [2]", "result": "The PLP prosthetic group creates a Schiff base (internal aldimine) between C4′ and Nζ of K265"}
    ]},
    {"molecule": "Cc1ncc(COP(=O)(O)O)c(CN)c1O", "note": "[PMP]", "values": [
      {"measurement": "crystal structure", "setting": "AtPSAT1 [3]", "result": "Position of PMP is almost identical as PLP, thus its interactions with the protein are preserved"}
    ]},
    {"molecule": "N[C@@H](COP(=O)(O)O)C(=O)O", "note": "[PSer]", "values": [
      {"measurement": "crystal structure", "setting": "AtPSAT1 [4]", "result": "The bound PSer creates several hydrogen bonds in the active site"}
    ]},
    {"molecule": "Phosphoserine aminotransferase isoform 1 from Arabidopsis thaliana (AtPSAT1), residues 72-430 (enzyme, UniProt Q96255 72-430, looked up, PLP covalently bound to the catalytic K265 (internal aldimine, 6czx); PMP not covalently bound (6czy); cofactor covalently bound to both K265 and PSer (geminal diamine, 6czz), Phosphoserine aminotransferase isoform 1, chloroplastic, Arabidopsis thaliana; subunit of 430 residues including the transit peptide; construct truncated before R72 (71-residue chloroplast transit peptide removed), residues 72-430, 359 residues; After TEV cleavage the N-terminal residues SNA remain in front of R72 (vector pMCSG68); Crystallised with 1 mM PLP; with 10 mM Glu (PMP form) or 50 mM …) RVFNFAAGPATLPENVLLKAQADLYNWRGSGMSVMEMSHRGKEFLSIIQKAESDLRQLLEIPQEYSVLFLQGGATTQFAALPLNLCKSDDTVDFVVTGSWGDKAVKEAKKYCKTNVIWSGKSEKYTKVPSFEELEQTPDAKYLHICANETIHGVEFKDYPVPKNGFLVADMSSNFCSKPVDVSKFGVIYGGAQKNVGPSGVTIVIIRKDLIGNAQDITPVMLDYKIHDENSSLYNTPPCFGIYMCGLVFEDLLEQGGLKEVEKKNQRKADLLYNAIEESNGFFRCPVEKSVRSLMNVPFTLEKSELEAEFIKEAAKEKMVQLKGHRSVGGMRASIYNAMPLAGVEKLVAFMKDFQAKHA", "values": [
      {"measurement": "stoichiometry N", "setting": "[5]", "result": 2}
    ]}
  ]
}
